In ChEMBL document CHEMBL5724914, “Linking interpersonal differences in gut microbiota composition and drug biotransformation activity” (2024):

Columns and labels:
[1] = (§1) The drug is tested on Z-030 corresponding to mouse gut metagenome with ENA study accession number: PRJEB37062 and ENA sample accession number: ERS12561829 for biotransformation under anaerobic condition. The drug concentrations were measured over 9 timepoints collected between 0 and 24 hours of incubation by liquid-chromatography-coupled mass spectrometry (LC–MS); settings: 2 µM
[2] = as §1, with “Z-028” for “Z-030”, “ERS12561827” for “ERS12561829”; settings: 2 µM
[3] = as §1, with “Z-026” for “Z-030”, “to” for “to mouse gut”, “ERS12561825” for “ERS12561829”; settings: 2 µM
[4] = as §1, with “Z-023” for “Z-030”, “to” for “to mouse gut”, “ERS12561822” for “ERS12561829”; settings: 2 µM
[5] = as §1, with “Z-021” for “Z-030”, “to” for “to mouse gut”, “ERS12561820” for “ERS12561829”; settings: 2 µM
[6] = as §1, with “Z-019” for “Z-030”, “rat” for “mouse”, “ERS12561818” for “ERS12561829”; settings: 2 µM
[7] = as §1, with “Z-009” for “Z-030”, “pig” for “mouse”, “ERS12561809” for “ERS12561829”; settings: 2 µM
[8] = as §1, with “Z-008” for “Z-030”, “to” for “to mouse gut”, “ERS12561808” for “ERS12561829”; settings: 2 µM
[9] = as §1, with “Z-002” for “Z-030”, “rabbit” for “mouse”, “ERS12561802” for “ERS12561829”; settings: 2 µM
[10] = as §1, with “WLS-350” for “Z-030”, “human” for “mouse”, “ERS12561789” for “ERS12561829”; settings: 2 µM
[11] = as §1, with “WLS-098” for “Z-030”, “human” for “mouse”, “ERS12561754” for “ERS12561829”; settings: 2 µM
[12] = as §1, with “WLS-052” for “Z-030”, “human” for “mouse”, “ERS12561747” for “ERS12561829”; settings: 2 µM
[13] = as §1, with “WLS-027” for “Z-030”, “human” for “mouse”, “ERS12561744” for “ERS12561829”; settings: 2 µM
[14] = human gut metagenome, 24 h, 2 µM
[15] = human gut metagenome, 24 h, 2 µM; remark: listed apart in the source
[16] = human gut metagenome, 24 h, 2 µM; remark: listed apart in the source
[17] = human gut metagenome, 24 h, 2 µM; remark: listed apart in the source
[18] = human gut metagenome, 24 h, 2 µM; remark: listed apart in the source
[19] = human gut metagenome, 24 h, 2 µM; remark: listed apart in the source
[20] = human gut metagenome, 24 h, 2 µM; remark: listed apart in the source
Note: call rule not given here.

Compound | Bacterial Biotransformation [1] | Bacterial Biotransformation [2] | Bacterial Biotransformation [3] | Bacterial Biotransformation [4] | Bacterial Biotransformation [5] | Bacterial Biotransformation [6] | Bacterial Biotransformation [7] | Bacterial Biotransformation [8] | Bacterial Biotransformation [9] | Bacterial Biotransformation [10] | Bacterial Biotransformation [11] | Bacterial Biotransformation [12] | Bacterial Biotransformation [13] | Bacterial Biotransformation [14] | Bacterial Biotransformation [15] | Bacterial Biotransformation [16] | Bacterial Biotransformation [17] | Bacterial Biotransformation [18] | Bacterial Biotransformation [19] | Bacterial Biotransformation [20]
CC(C)(C)NC[C@H](O)COc1ccccc1C1CCCC1.CC(C)(C)NC[C@H](O)COc1ccccc1C1CCCC1.O=S(=O)(O)O [PENBUTOLOL SULFATE] | Compound NOT metabolized | Compound NOT metabolized | Compound NOT metabolized | Compound metabolized | Compound metabolized | Compound NOT metabolized | Compound metabolized | Compound NOT metabolized | Compound metabolized | Compound metabolized | Compound metabolized | Compound metabolized | Compound metabolized | Compound metabolized | Compound metabolized | Compound metabolized | Compound metabolized | Compound metabolized | Compound metabolized | Compound metabolized
COc1c2occc2cc2ccc(=O)oc12 [METHOXSALEN] | Compound NOT metabolized | Compound metabolized | Compound metabolized | Compound metabolized | Compound metabolized | Compound NOT metabolized | Compound metabolized | Compound metabolized | Compound metabolized | Compound metabolized | Compound metabolized | Compound metabolized | Compound metabolized | Compound metabolized | Compound metabolized | Compound metabolized | Compound metabolized | Compound metabolized | Compound metabolized | Compound metabolized
CC(=O)OCC(=O)[C@@]12N=C(C)O[C@@H]1C[C@H]1[C@@H]3CCC4=CC(=O)C=C[C@]4(C)[C@H]3[C@@H](O)C[C@@]12C [DEFLAZACORT] | Compound metabolized | Compound metabolized | Compound metabolized | Compound metabolized | Compound metabolized | Compound NOT metabolized | Compound metabolized | Compound metabolized | Compound metabolized | Compound metabolized | Compound metabolized | Compound metabolized | Compound metabolized | Compound metabolized | Compound metabolized | Compound metabolized | Compound metabolized | Compound metabolized | Compound metabolized | Compound metabolized
